Data as given in patent US20140031431A1, “PEST-IMPERVIOUS PACKAGING MATERIAL AND PEST-CONTROL COMPOSITION” (Biopack Ltd., priority 2004, published 2014).

Assays:
R. dominica adults [1] = test: Choice paper perforation bioassay (Examples 2-4); type: in vivo, Rhyzopertha dominica
Description: (§1) In order to evaluate the effect of isolated samples or compounds on the behavior of storage insects, three bioassays were conducted: repellency, “choice” and “non-choice” paper perforation bioassays. These bioassays were aimed to uncover two principle activities: repellency and antifeedant activities. Accordingly, the “repellency bioassay” uncovered the sample's capacity to repel insects and the “choice bioassay” uncovered the combined antifeedant and repelling activities. […] Thus, the combined data of all three bioassays enabled determining the antifeedant capacity of the sample.
The same methodology used in the non-choice test was used in this test. However, in choice test, the 28 mm diameter discs of 110 μm thick office paper were divided in half; one side was impregnated with the oil or fraction under test, while the other half was used as a blank and was treated with acetone only. In this test only a 50 microgram sample of the test oil or fraction was applied per cm^2 of paper. […] The number of perforations appearing in the two parts of the disc were counted, and a comparative analysis was performed using the Student's t test for residual effect and the differences between control and dosages applied were determined using Dunnet's test (Anon., 1989).

[2] = test system: several field and storage insects; details: direct application methods; cited from earlier work
[3] = test system: storage beetle Tribolium castaneum; details: as long as 8 weeks following application; cited from earlier work
T. castaneum adults = test: Repellency bioassay (Examples 2-4); type: in vivo, Tribolium castaneum; parameters: key to Repellency: 0 (no effect); +; ++; +++ (strong effect)
Description: as §1
The propensity of the tested extracts to repel insects was determined against T. castaneum adults using the methods by Laudani et al. (1955) and McDonald et al. (1970). Accordingly, filter paper strips (Filtrak 3 HW; 10×20 cm) were treated with 4 ml of acetone solutions of turmeric extracts at 50 μg/cm^2 (or any other predetermined concentration). Each treated paper strip was attached lengthwise by Scotch tape on the reverse side, edge to edge, to two untreated 5×20 cm strips, to which acetone alone had been similarly applied. Two glass rings, 2.5 cm high and 6.4 cm i.d., were then placed over the two matched papers so that the joined edges of the papers bisected the rings. Ten adults of the test insect species were then exposed separately on the test arenas inside each glass ring, and their numbers on the treated and untreated halves were recorded every hour for the first eight hours exposure on the first day, and then in the morning of the next day two additional recordings were made for a total of 10 consecutive readings. In each test four replicates were conducted. All tests were performed at 27° C. The average count of all four replicates, each containing 10 reading periods was converted to percent repellency values, as described by Laudani et al. (1955).

R. dominica adults [4] = test: Non-choice paper perforation bioassay (Examples 2-4); type: in vivo, Rhyzopertha dominica; details: 24 hours
Description: The device used for the penetration prevention bioassay consisted of two identical open-ended glass cylinders (24 mm i.d., 28 mm o.d., 26 mm height) each with four notches spaced at equal distances around the outer rim. The impregnated office paper and a piece of wire-mesh (US standard No. 25) cut into 28 mm diameter discs were placed together on top of one cylinder. Then the second cylinder was placed over the wire-mesh and the two cylinders were pressed together and held in place by two rubber bands, secured by the notches in the cylinder rims (Navarro et al., 1998). Ten 10-15 d old R. dominica adults were placed inside the top cylinder and were kept in the test devices for […] in a temperature and humidity controlled room. All tests were run at 27° C. and 65% R.H., and there were ten replicates (devices) per test. At the end of each exposure period, the discs were examined on a black surface under a binocular microscope at 15× magnification. The number of perforations appearing as black circles were counted, and a comparative analysis was performed using the Student's t test for residual effect and the differences between control and dosages applied were determined using Dunnet's test (Anon., 1989). […]

storage insects = test: Penetration prevention (antifeedant) effect judged from combined repellency, choice and non-choice bioassays; type: in vivo, Rhyzopertha dominica; parameters: key: 0 (no effect); +; ++; +++ (strong effect); details: at 50 μg/cm^2, 4 arbitrary classes
Description: as §1

CC(C)=CC(=O)CC(C)c1ccc(C)cc1 (stereo not drawn) [ar-turmerone, 2-methyl-6-(4-methylphenyl)-2-hepten-4-one]
Choice Test (%) (50 μg/cm^2) (R. dominica adults [1]): 89% | concentration at which insecticidal [2]: at least 500 ppm | average repellency [3]: 62.9% | repellency class [3]: IV (class IV, 60.1-80%) | Repellency test (%) (50 μg/cm^2) (T. castaneum adults; 50 μg/cm^2): 75% | Repellency (T. castaneum adults; at 50 μg/cm^2, 4 arbitrary classes): +++ | ar-turmerone required to achieve 60% repellency (T. castaneum adults; estimated from concentration-repellency curve (FIG. 2)): ~32 μg/cm^2 | Non-choice test (%) (50 μg/cm^2) (R. dominica adults [4]): −483% | Penetration prevention effect (storage insects): 0
